Source: US12281119B2, “Imidazo[2,1-f][1,2,4]triazin-4-amine derivatives as TLR7 agonist” (BEIGENE, LTD., priority 2019, dated 2025)

Legend:
Type in all cases: cell-based
human TLR7 [1] = biological target: T1, human TLR7 (Homo sapiens, UniProt Q9NYK1); test: HEK293-Blue hTLR7 reporter assay (QUANTI-BLUE, SEAP readout); set-up: host or cells: HEK293 (HEK-Blue-hTLR7); conditions: HEK-Blue-hTLR7 cells, 24 hrs
T1 sequence (Q9NYK1 27-1049): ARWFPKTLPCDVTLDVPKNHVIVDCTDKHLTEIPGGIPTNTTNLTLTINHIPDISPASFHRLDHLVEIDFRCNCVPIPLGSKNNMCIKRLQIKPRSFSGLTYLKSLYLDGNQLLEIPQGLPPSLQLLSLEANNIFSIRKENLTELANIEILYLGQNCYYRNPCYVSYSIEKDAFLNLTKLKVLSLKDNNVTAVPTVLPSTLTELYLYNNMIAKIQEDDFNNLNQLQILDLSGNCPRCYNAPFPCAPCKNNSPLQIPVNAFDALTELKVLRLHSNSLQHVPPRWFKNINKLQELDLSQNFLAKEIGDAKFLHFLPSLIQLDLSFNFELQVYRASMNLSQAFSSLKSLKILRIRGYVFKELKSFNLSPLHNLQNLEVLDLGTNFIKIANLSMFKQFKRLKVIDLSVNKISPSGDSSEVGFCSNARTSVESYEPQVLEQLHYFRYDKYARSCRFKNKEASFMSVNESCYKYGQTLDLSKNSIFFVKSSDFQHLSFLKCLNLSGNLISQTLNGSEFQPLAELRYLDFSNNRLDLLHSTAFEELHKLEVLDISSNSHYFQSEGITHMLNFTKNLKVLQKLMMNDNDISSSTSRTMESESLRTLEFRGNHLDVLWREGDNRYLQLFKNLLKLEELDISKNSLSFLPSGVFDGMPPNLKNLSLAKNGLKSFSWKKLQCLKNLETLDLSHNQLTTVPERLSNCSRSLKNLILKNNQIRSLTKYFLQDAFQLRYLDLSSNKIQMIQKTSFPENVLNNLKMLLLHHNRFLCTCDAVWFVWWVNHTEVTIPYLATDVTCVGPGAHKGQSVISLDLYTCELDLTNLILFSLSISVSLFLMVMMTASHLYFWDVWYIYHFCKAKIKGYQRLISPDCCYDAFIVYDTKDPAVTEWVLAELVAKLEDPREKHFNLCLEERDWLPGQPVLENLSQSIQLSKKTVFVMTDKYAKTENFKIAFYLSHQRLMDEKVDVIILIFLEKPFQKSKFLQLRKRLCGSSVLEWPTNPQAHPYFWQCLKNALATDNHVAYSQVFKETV
Outline: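 Cells seeded at 4×10^4 per well in DMEM/10% heat-inactivated FBS, settled 5 h, then exposed to increasing compound amounts for 24 h at 37° C. Secreted SEAP in supernatant read with Quanti-blue at 620-655 nm after 10-30 min at 37° C.; EC50 from sigmoidal dose-response fit.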

human TLR 8 protein = biological target: T2, human TLR 8 protein (Homo sapiens, UniProt Q9NR97); test: TLR8 stimulation determined using HEK-Blue Detection; conditions: HEK-Blue hTLR8 cells, 16 hr, relative to Resiquimod or Motolimod maximum
T2 construct: expressed in transfected cells; host or cells: HEK293 (HEK-Blue hTLR8)
T2 sequence (Q9NR97 27-1041): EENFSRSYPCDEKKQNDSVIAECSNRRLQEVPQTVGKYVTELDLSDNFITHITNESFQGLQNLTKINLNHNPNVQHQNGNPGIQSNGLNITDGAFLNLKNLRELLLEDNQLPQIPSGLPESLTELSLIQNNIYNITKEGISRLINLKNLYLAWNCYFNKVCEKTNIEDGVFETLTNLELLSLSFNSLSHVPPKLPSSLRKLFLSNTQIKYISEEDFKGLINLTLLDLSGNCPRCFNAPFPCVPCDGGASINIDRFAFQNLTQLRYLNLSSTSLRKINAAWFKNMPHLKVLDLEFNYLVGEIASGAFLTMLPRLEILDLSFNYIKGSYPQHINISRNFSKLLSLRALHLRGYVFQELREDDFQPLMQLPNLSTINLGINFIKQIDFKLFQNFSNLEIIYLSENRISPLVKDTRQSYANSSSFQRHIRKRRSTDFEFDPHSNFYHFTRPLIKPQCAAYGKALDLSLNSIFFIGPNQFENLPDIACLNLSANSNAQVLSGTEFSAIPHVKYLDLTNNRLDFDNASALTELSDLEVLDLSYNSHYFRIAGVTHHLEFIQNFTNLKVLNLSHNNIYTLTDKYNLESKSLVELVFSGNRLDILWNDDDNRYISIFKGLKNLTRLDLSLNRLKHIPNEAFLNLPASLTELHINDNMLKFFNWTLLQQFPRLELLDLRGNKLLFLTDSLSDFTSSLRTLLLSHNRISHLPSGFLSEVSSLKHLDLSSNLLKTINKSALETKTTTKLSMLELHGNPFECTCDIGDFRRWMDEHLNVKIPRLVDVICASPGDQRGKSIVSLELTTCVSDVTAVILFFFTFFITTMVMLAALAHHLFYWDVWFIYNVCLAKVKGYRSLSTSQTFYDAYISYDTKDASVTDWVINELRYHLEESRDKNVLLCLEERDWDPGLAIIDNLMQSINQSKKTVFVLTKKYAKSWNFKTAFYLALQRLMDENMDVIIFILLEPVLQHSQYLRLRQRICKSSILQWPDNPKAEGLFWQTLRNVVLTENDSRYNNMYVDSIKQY
Source text: TLR8 Stimulation Determined Using HEK-Blue Detection
This assay was designed for studying the stimulation of human TLR 8 protein in HEK-Blue hTLR8 tool cell line by monitoring the activation of NF-1B. HEK-Blue hTLR8 cells were obtained by co-transfection of the hTLR8 gene and an optimized secreted embryonic alkaline phosphatase (SEAP) reporter gene into HEK293 cells. The SEAP reporter gene was placed under the control of the IFN-β minimal promoter fused to five NF-κB and AP-1-binding sites. Stimulation with a TLR 8 ligand activates NF-κB and AP-1 which induce the expression of SEAP. Levels of SEAP can be easily determined with HEK-Blue Detection, a cell culture medium that allows for real-time detection of SEAP. HEK-Blue Detection contains all the nutrients necessary for cell growth and a specific SEAP color substrate. The hydrolysis of the substrate by SEAP produces a purple/blue color that can be measured with a spectrophotometer.
When growing to 50-80% confluency, HEK-Blue hTLR7/8 cells were plated into 96-well plate (costar 3599) at a density of 40000 cells/well. Then compounds were added with serial dilutions over 10 points with a 1 nM-10 uM final concentration range in 0.1% DMSO/HEK-Blue Detection. The plates were then incubated for 16 hr at 37° C. in 5% CO2. The optical density at 620-655 nm was read on BMG PHERAstar FSX instrument. The EC50 for each compound was determined by calculating the percentages of the maximum activation identified with Resiquimod or Motolimod.

human TLR7 [2] = biological target: T1, human TLR7; test: TLR7 stimulation determined using HEK-Blue Detection; set-up: expressed in transfected cells; host or cells: HEK293 (HEK-Blue hTLR7); conditions: HEK-Blue hTLR7 cells, HEK-Blue Detection (A77-A124), 16 hr, relative to Resiquimod maximum
Source text: TLR7 Stimulation Determined Using HEK-Blue Detection
This assay was designed for studying the stimulation of human TLR7 protein in HELK-Blue hTLR7 tool cell line by monitoring the activation of NF-κB. HEK-Blue hTLR7 cells were obtained by co-transfection of the hTLR7 gene and an optimized secreted embryonic alkaline phosphatase (SLAP) reporter gene into HEK293 cells. The SLAP reporter gene was placed under the control of the IFN-β minimal promoter fused to five NF-κB and AP-1-binding sites. Stimulation with a TLR7 ligand activates NF-κB and AP-1 which induce the expression of SLAP. Levels of SLAP can be easily determined with HEK-Blue Detection, a cell culture medium that allows for real-time detection of SLAP. HLK-Blue Detection contains all the nutrients necessary for cell growth and a specific SLAP color substrate. The hydrolysis of the substrate by SLAP produces a purple/blue color that can be measured with a spectrophotometer.
When growing to 50-80%0 confluency, HLK-Blue hTLR7 cells were plated into 96-well plate (costar 3599) at a density of 40000 cells/well. Then compounds were added with serial dilutions over 10 points with a 0.04 nM-10 μM final concentration range in 0.1% DMSO/BLK-Blue Detection. The plates were then incubated for 16 hr at 37° C. in […] and vortex for 30s before measurement. The optical density at 620-655 nm was read on BMG PHLRAstar FSX instrument. The EC50 for each compound was determined by calculating the percentages of the maximum activation identified with Resiquimod.

Compound | EC50 (human TLR 8 protein) | EC50 (human TLR7 [2]) | EC50 (human TLR7 [1]; QUANTI-BLUE assay (A1-A76)) | EC50 (human TLR7 [1]; QUANTI-BLUE assay (C1-C6))
CCCCOc1nc(N)c2ncc(Cc3ccc(CN4CCC(N)CC4)cc3)n2n1 [Compound A43, 7-(4-((4-aminopiperidin-1-yl)methyl)benzyl)-2-butoxyimidazo[2,1-f][1,2,4]triazin-4-amine] | 0.255 µM |  | 0.822 µM | 
CCCC(CCO)Oc1nc(N)c2ncc(Cc3ccc(OCCNC)nc3)n2n1 (single isomer, unassigned) [Compound A82, (S or R) 3-((4-amino-7-((6-(2-(methylamino)ethoxy)pyridin-3-yl)methyl)imidazo[2,1-f][1,2,4]triazin-2-yl)oxy)hexan-1-ol] | 0.022 µM | 0.005 µM |  | 
CCCCOc1nc(N)c2ncc(Cc3ccc4c(c3)CCN(C(C)C)C4)n2n1 [Compound A8, 2-butoxy-7-((2-isopropyl-1,2,3,4-tetrahydroisoquinolin-6-yl)methyl)imidazo[2,1-f][1,2,4]triazin-4-amine] | 0.187 µM |  | 3.03 µM | 
CCCCOc1nc(N)c2ncc(Cc3ccc(CN4CCNCC4)cc3)n2n1 [Compound A10, 2-butoxy-7-(4-(piperazin-1-ylmethyl)benzyl)imidazo[2,1-f][1,2,4]triazin-4-amine] | 0.572 µM |  | 1.17 µM | 
CCCCOc1nc(N)c2ncc(Cc3ccc(OCCNC)nc3)n2n1 [Compound A58, 2-butoxy-7-((6-(2-(methylamino)ethoxy)pyridin-3-yl)methyl)imidazo[2,1-f][1,2,4]triazin-4-amine] | 0.183 µM |  | 0.246 µM | 
CCCCOc1nc(N)c2ncc(Cc3ccc(CN4CCC(Oc5ccccc5)CC4)cc3)n2n1 [Compound A47, 2-butoxy-7-(4-((4-phenoxypiperidin-1-yl)methyl)benzyl)imidazo[2,1-f][1,2,4]triazin-4-amine] |  |  | > 10 µM | 
CCCCOc1cc2c(Cc3cnc(N4CCNCC4)c(Cl)c3)cnn2c(N)n1 [Compound C3, 5-butoxy-3-((5-chloro-6-(piperazin-1-yl)pyridin-3-yl)methyl)pyrazolo[1,5-c]pyrimidin-7-amine] |  |  |  | > 10 µM

Now from value to compound, other results behind:

EC50 (human TLR 8 protein) | EC50 (human TLR7 [2]) | Compound | EC50 (human TLR7 [1]; QUANTI-BLUE assay (A1-A76)) | EC50 (human TLR7 [1]; QUANTI-BLUE assay (C1-C6))
0.015 µM | 0.0021 µM | CCCC(CCO)Oc1nc(N)c2ncc(Cc3ccc(OCCNC)c(F)c3)n2n1 (centres unmarked) [Compound A91, 3-((4-amino-7-(3-fluoro-4-(2-(methylamino)ethoxy)benzyl)imidazo[2,1-f][1,2,4]triazin-2-yl)oxy)hexan-1-ol] |  | 
0.129 µM | 0.0144 µM | CCC[C@H](C)Oc1nc(N)c2ncc(Cc3ccc(OCCNC)c(F)c3)n2n1 [Compound A99, (S)-7-(3-fluoro-4-(2-(methylamino)ethoxy)benzyl)-2-(pentan-2-yloxy)imidazo[2,1-f][1,2,4]triazin-4-amine] |  | 
2.97 µM | 0.146 µM | CCCC(CCO)Oc1nc(N)c2ncc(Cc3ccc(CCNC)cc3)n2n1 (single isomer, unassigned) [Compound A119, (R or S)-3-((4-amino-7-(4-(2-(methylamino)ethyl)benzyl)imidazo[2,1-f][1,2,4]triazin-2-yl)oxy)hexan-1-ol] |  | 
0.021 µM | 0.0008 µM | CCCC(CCO)Oc1nc(N)c2ncc(Cc3ccc(OCCNC)cc3Cl)n2n1 (single isomer, unassigned) [Compound A108, (R or S)-3-((4-amino-7-(2-chloro-4-(2-(methylamino)ethoxy)benzyl)imidazo[2,1-f][1,2,4]triazin-2-yl)oxy)hexan-1-ol] |  | 
0.047 µM | 0.0024 µM | CCCC(CCO)Oc1nc(N)c2ncc(Cc3ccc(OCCNC)c(C)c3)n2n1 (single isomer, unassigned) [Compound A103, (R or S)-3-((4-amino-7-(3-methyl-4-(2-(methylamino)ethoxy)benzyl)imidazo[2,1-f][1,2,4]triazin-2-yl)oxy)hexan-1-ol] |  | 
0.134 µM | 0.0037 µM | CCCC(CCO)Oc1nc(N)c2ncc(Cc3ccc(OCCNC)c(Cl)c3)n2n1 (centres unmarked) [Compound A102, 3-((4-amino-7-(3-chloro-4-(2-(methylamino)ethoxy)benzyl)imidazo[2,1-f][1,2,4]triazin-2-yl)oxy)hexan-1-ol] |  | 
0.029 µM | 0.0043 µM | CCCC(CCO)Oc1nc(N)c2ncc(Cc3ccc(OCCNC)nc3OC)n2n1 (centres unmarked) [Compound A96, 3-((4-amino-7-((2-methoxy-6-(2-(methylamino)ethoxy)pyridin-3-yl)methyl)imidazo[2,1-f][1,2,4]triazin-2-yl)oxy)hexan-1-ol] |  | 
